Reference: PMC10966741, “Consensus Pharmacophore Strategy For Identifying Novel SARS-Cov-2 M^pro Inhibitors from Large Chemical Libraries” (Journal of Chemical Information and Modeling, 2024)
pIC50: −log10 of the molar value.

Each compound was assayed against SARS-CoV-2 M^pro (main protease; 3CLpro) (Severe acute respiratory syndrome coronavirus 2, UniProt P0DTC1) (assay: continuous FRET cleavage assay).
Format: biochemical

Q: How did the pIC50 turn out when `Cc1ccc(NC(=O)C2CC(=O)Nc3cc(F)ccc32)c(OCC(F)(F)F)c1` (stereo not drawn) [compound 1, 7-fluoro-N-[4-methyl-2-(2,2,2-trifluoroethoxy)phenyl]-2-oxo-1,2,3,4-tetrahydroquinoline-4-carboxamide] was run?
A: 4.06

Q: `O=C(Nc1ccccc1-c1nc2ccccc2[nH]1)c1cc(C2CC2)[nH]n1` [compound 5, N-[2-(1H-1,3-benzodiazol-2-yl)phenyl]-5-cyclopropyl-1H-pyrazole-3-carboxamide] was tested. Which pIC50 did it give?
A: 4.15

Q: How did the pIC50 turn out when `CCOc1cc(C)ccc1NC(=O)C1CC(=O)Nc2ccccc21` (stereo not drawn) [compound 4, N-(2-ethoxy-4-methylphenyl)-2-oxo-1,2,3,4-tetrahydroquinoline-4-carboxamide] was run?
A: 4.49
